According to patent US20220054588A1, “USE OF SAP FOR THE TREATMENT OF EUROTIOMYCETES FUNGI INFECTIONS” (HUMANITAS MIRASOLE S.P.A., priority 2018, published 2022):

B1: recombinant murine SAP: recombinant murine SAP from mouse myeloma cell line NSO (R&D Systems) (protein, UniProt P12246 21-224, looked up)
Serum amyloid P-component: QTDLKRKVFVFPRESETDHVKLIPHLEKPLQNFTLCFRTYSDLSRSQSLFSYSVKGRDNELLIYKEKVGEYSLYIGQSKVTVRGMEEYLSPVHLCTTWESSSGIVEFWVNGKPWVKKSLQREYTVKAPPSIVLGQEQDNYGGGFQRSQSFVGEFSDLYMWDYVLTPQDILFVYRDSPVNPNILNWQALNYEINGYVVIRPRVWD

Key:
human neutrophils = test: Phagocytosis of A. fumigatus conidia by isolated human neutrophils in normal or complement-depleted human sera; assay type: cell-based
Method: FIG. 8 depicts the initiation of classical complement activation at the bases of SAP-mediated phagocytosis. a) fluorescein-labelled AF conidia (1.6×10^6) phagocytosis by freshly isolated human neutrophils (2×10^5) in presence of sera depleted (−) from complement components and the effect of SAP opsonisation after 1 and 30 min AF conidia (2×10^8) opsonisation with 100 μg of human native SAP. 5% (left) or 10% (right) of human sera were used. Mean±SEM;*, P<0.05;**, P<0.01;***, P<0.005;***, P<0.0001 (Mann-Whitney test). b) FACS analysis of C1q deposition on AF conidia (1×10^7) in presence of plasma from wt or Apcs^−/− mice. Mean±SEM;*, P=0.05.
Human neutrophils were isolated from fresh whole blood of healthy volunteers through separation from erythrocytes by 3% dextran (GE Healthcare Life Sciences) density gradient sedimentation followed by Ficoll-Paque PLUS (GE Healthcare Life Sciences) and 62% Percoll® (Sigma-Aldrich) centrifugation as previously described (Moalli et al., 2010). Purity, determined by FACS analysis on forward scatter/side scatter parameters, was routinely >98%. 1×10^5 neutrophils were incubated for 1 and 30 min at 37° C. in 50 μl RPMI-1640 medium with 5 and 10% normal human serum (NS) or complement depleted sera and 1×10^5 FITC-labelled A. fumigatus conidia. Cells were transferred on ice and, after washing with PBS, pH 7.4, containing 10 mM EDTA and 0.2% bovine serum albumin (BSA; Sigma-Aldrich), FITC fluorescence in neutrophils (CD45-positive cells, neutrophils defined as FSC-A^high/SSC-A^high) was analysed by BD FACS Canto™ II Flow Cytometer (BD Biosciences). NS and sera depleted for C3, C1q, MBL, FB and FH were all obtained from CompTech (Complement Technology, Inc., USA).

A. fumigatus = test: Rescue experiment: survival after i.t. injection of Sap-opsonised A. fumigatus conidia; assay type: in vivo, mice; settings: 5×10^7 i.t.
Method: FIG. 5 depicts the rescue of susceptibility to A. fumigatus in SAP-deficient mice. a) b) c) d) i.t. injection of non-opsonised or Sap-opsonised AF conidia. a) survival of wt and Apcs^−/− mice. Wt, n=10; wt+Sap, n=10; Apcs^−/−, n=14; Apcs^−/−+Sap, n=13.****, P<0.0001, wt vs. Apcs^−/− or Apcs^−/− vs. Apcs^−/−+Sap (Mantel-Cox test). b) and c) levels of TNF-α (b) and MPO (c) in BALFs of mice (16 h). b),****, P<0.0001;**, P<0.01. c),***, P<0.0005. d, FACS analysis of neutrophil recruitment in lung (16 h). Mean±SEM.****, P<0.0001;*, P<0.05. b), c), d), Mean±SEM; Mann-Whitney test.
The growth and culture conditions of A. fumigatus and A. Flavus conidia were as described (Garlanda et al., 2002). For intratracheal (i.t.) injection, mice were anesthetized by i.p. injection of ketamine (100 mg/Kg; i.p.) and xylazine (10 mg/Kg i.p.). After surgical exposure, a volume of 50 μl PBS^2+, pH 7.4, containing 1×10^8 or 5×10^7 resting conidia (>95% viable, as determined by serial dilution and plating of the inoculum on Sabouraud dextrose agar) were delivered into trachea under direct vision using a catheter connected to the outlet of a micro-syringe (Terumo, Belgium). Survival to infection was daily monitored for 10d later. Dying mice were euthanized after evaluation of the following clinical parameters: body temperature dropping, intermittent respiration, solitude presence, sphere posture, fur erection, non-responsive alertness, and inability to ascent when induced.
In experiments of in vivo phagocytosis, mice were i.t. injected with 5×10^7 heat inactivated fluorescein isothiocyanate (FITC)-labelled conidia and euthanized 4 h later. In rescue experiments, conidia (1×10^9) were opsonized with murine recombinant SAP (50 μg/ml; R&D Systems) for 1 h at r.t. in PBS, pH 7.4, containing 0.01% (vol/vol) Tween-20® (Merck-Millipore). After washing of unbound protein, a volume of 50 μl (5×10^7 conidia) was i.t. injected.

Row | Molecule | potentiation of phagocytosis (human neutrophils; C1q-depleted serum) | potentiation of phagocytosis (human neutrophils; C3-depleted serum) | potentiation of phagocytosis (human neutrophils; MBL-depleted serum 5%) [%] | potentiation of phagocytosis (human neutrophils; MBL-depleted serum 10%) [%] | potentiation of phagocytosis (human neutrophils; normal human serum 5%) [%] | potentiation of phagocytosis (human neutrophils; normal human serum 10%) [%] | MST (A. fumigatus; Apcs−/− mice) [days] | mice that resisted infection (survival) (A. fumigatus; Apcs−/− mice) [%] | MST (A. fumigatus; wt mice) | survival (A. fumigatus; wt mice) [%]
1 | human native SAP: Native SAP from human serum purchased by Merck-Millipore; Serum Amyloid P component, SEQ ID NO: 1 | but not | but not | 55.5±17.0 | 19.8±6.1 | 37.4±10.3 | 18.3±2.0 |  |  |  | 
2 | B1 |  |  |  |  |  |  | > 10 | 69 | > 10 | 70
